This experiment deals with T1, human adenosine A2b receptor (Homo sapiens, UniProt P29275).
T1 sequence (P29275 1-332): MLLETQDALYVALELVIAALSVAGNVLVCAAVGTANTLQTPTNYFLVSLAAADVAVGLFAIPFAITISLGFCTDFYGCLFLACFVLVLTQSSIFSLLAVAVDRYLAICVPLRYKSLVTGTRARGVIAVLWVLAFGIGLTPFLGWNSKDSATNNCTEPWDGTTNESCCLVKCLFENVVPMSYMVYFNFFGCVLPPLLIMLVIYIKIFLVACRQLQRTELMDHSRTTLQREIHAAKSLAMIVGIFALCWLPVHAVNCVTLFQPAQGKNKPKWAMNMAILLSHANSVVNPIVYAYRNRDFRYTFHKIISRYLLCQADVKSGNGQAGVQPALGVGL
Description: Cellular in vitro reporter gene test for A2b receptor activity (antagonism of NECA). Conditions: recombinant CHO-K1 cells, CRE-luciferase reporter, co-incubation with EC50 concentration of NECA, 3 hours. Also on record: expressed in transfected cells; host or cells: CHO-K1 (Chinese hamster ovary) with CRE-luciferase reporter. The class given is cell-based. The gist of the method: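 CHO-K1 cells expressing recombinant human A2b receptor plus a CRE-driven firefly luciferase reporter. Compounds co-incubated with NECA at its same-day EC50 concentration; luminescence read 3 hours after NECA addition. IC50 values, sometimes means of several determinations rounded to two significant figures.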
(In a reporter assay the amount or activity of a reporter protein is the signal.)

The structures appear in SMILES notation.

For ten compounds, IC50 results are on record in US20200016159A1, “N3-CYCLICALLY SUBSTITUTED THIENOURACILS AND USE THEREOF” (Bayer Aktiengesellschaft, priority 2016, published 2020).

In general, IC50 refers to the concentration needed to halve the response being measured.

Regarding `Cc1c(CN2CCNC2=O)sc2c1c(=O)n(C1CC1C)c(=O)n2CCCF` (single isomer, unassigned) [Example 92, 1-(3-Fluoropropyl)-5-methyl-3-(2-methylcyclopropyl)-6-[(2-oxoimidazolidin-1-yl)methyl]thieno[2,3-d]pyrimidine-2,4(1H,3H)-dione], the IC50 is 2.8 nM.

For the compound `COCCn1c(=O)n(C2CC2C)c(=O)c2c(C)c(CN3CCNC3=O)sc21` (single isomer, unassigned) [Example 95, 1-(2-Methoxyethyl)-5-methyl-3-(2-methylcyclopropyl)-6-[(2-oxoimidazolidin-1-yl)methyl]thieno[2,3-d]pyrimidine-2,4(1H,3H)-dione], the IC50 came out at 26 nM.

On to `Cc1c(CN2CCNC2=O)sc2c1c(=O)n(C1CC1(C)C)c(=O)n2CCCF` (single isomer, unassigned) [Example 98, 3-(2,2-Dimethylcyclopropyl)-1-(3-fluoropropyl)-5-methyl-6-[(2-oxoimidazolidin-1-yl)methyl]thieno[2,3-d]pyrimidine-2,4(1H,3H)-dione], for which the IC50 was determined as 140 nM.

With `Cc1c(CN2CCNC2=O)sc2c1c(=O)n(C1CC1(C)C)c(=O)n2CCCF` (single isomer, unassigned) [Example 99, 3-(2,2-Dimethylcyclopropyl)-1-(3-fluoropropyl)-5-methyl-6-[(2-oxoimidazolidin-1-yl)methyl]thieno[2,3-d]pyrimidine-2,4(1H,3H)-dione], the IC50 amounted to 28 nM.

On to `Cc1c(CN2CCNC2=O)sc2c1c(=O)n(C1CC1(C)C)c(=O)n2CCC(F)(F)F` (single isomer, unassigned) [Example 101, 3-(2,2-Dimethylcyclopropyl)-5-methyl-6-[(2-oxoimidazolidin-1-yl)methyl]-1-(3,3,3-trifluoropropyl)thieno[2,3-d]pyrimidine-2,4(1H,3H)-dione], for which the IC50 is 32 nM.

Regarding `Cc1c(CN2CCNC2=O)sc2c1c(=O)n(C1CC1(C)C)c(=O)n2CCC(F)(F)F` (single isomer, unassigned) [Example 102, 3-(2,2-Dimethylcyclopropyl)-5-methyl-6-[(2-oxoimidazolidin-1-yl)methyl]-1-(3,3,3-trifluoropropyl)thieno[2,3-d]pyrimidine-2,4(1H,3H)-dione], the IC50 was determined as 7.3 nM.

As for `COCCn1c(=O)n(C2CC2(C)C)c(=O)c2c(C)c(CN3CCNC3=O)sc21` (single isomer, unassigned) [Example 104, 3-(2,2-Dimethylcyclopropyl)-1-(2-methoxyethyl)-5-methyl-6-[(2-oxoimidazolidin-1-yl)methyl]thieno[2,3-d]pyrimidine-2,4(1H,3H)-dione], the IC50 was found to be 35 nM.

With `COCCn1c(=O)n(C2CC2(C)C)c(=O)c2c(C)c(CN3CCNC3=O)sc21` (single isomer, unassigned) [Example 105, 3-(2,2-Dimethylcyclopropyl)-1-(2-methoxyethyl)-5-methyl-6-[(2-oxoimidazolidin-1-yl)methyl]thieno[2,3-d]pyrimidine-2,4(1H,3H)-dione], the IC50 came to 92 nM.

In the case of `Cc1c(Cn2nc[nH]c2=O)sc2c1c(=O)n(C1CC1)c(=O)n2CC1CCCC1(F)F` (single isomer, unassigned) [Example 207, 3-Cyclopropyl-1-[(2,2-difluorocyclopentyl)methyl]-5-methyl-6-[(5-oxo-4,5-dihydro-1H-1,2,4-triazol-1-yl)methyl]thieno[2,3-d]pyrimidine-2,4(1H,3H)-dione], the IC50 came to 910 nM.

On to `Cc1c(Cn2nc[nH]c2=O)sc2c1c(=O)n(C1CC1)c(=O)n2CC1CCCC1(F)F` (single isomer, unassigned) [Example 208, 3-Cyclopropyl-1-[(2,2-difluorocyclopentyl)methyl]-5-methyl-6-[(5-oxo-4,5-dihydro-1H-1,2,4-triazol-1-yl)methyl]thieno[2,3-d]pyrimidine-2,4(1H,3H)-dione], for which the IC50 amounted to 10 nM.
